A value given as a limit tells only on which side of the number the result lay.

Ki data for eleven compounds are collected here from ChEMBL document CHEMBL3763023, “Amido/ureidosubstituted benzenesulfonamides-isatin conjugates as low nanomolar/subnanomolar inhibitors of the tumor-associated carbonic anhydrase isoform XII” (Eur J Med Chem, 2016).

Assay [1] deals with Carbonic anhydrase 9 (Homo sapiens, UniProt Q16790). As to the kind of experiment: Inhibition of recombinant human carbonic anhydrase 9 incubated for 15 mins prior to testing by stopped flow carbon dioxide hydrase assay.
Assay [2] addresses Carbonic anhydrase 2 (Homo sapiens, UniProt P00918). The experiment in a line: Inhibition of recombinant human carbonic anhydrase 2 incubated for 15 mins prior to testing by stopped flow carbon dioxide hydrase assay.

As a reminder, the Ki is a dissociation constant, usually derived from enzyme kinetics or from competition with a known ligand. On to `NS(=O)(=O)c1ccc(NC(=O)Nc2ccc(/N=C3\C(=O)Nc4ccc(Cl)cc43)cc2)cc1`, for which the Ki in assay [1] was found to be 239 nM.

In the case of `NS(=O)(=O)c1ccc(/N=C2\C(=O)Nc3ccc([N+](=O)[O-])cc32)cc1`, in assay [1], the Ki came to 5 nM.

As to `NS(=O)(=O)c1ccc(NC(=O)c2ccc(/N=C3\C(=O)Nc4ccccc43)cc2)cc1`, the Ki in assay [1] came out at 240 nM.

For the compound `Cc1ccc2c(c1)/C(=N/c1ccc(NC(=O)Nc3ccc(S(N)(=O)=O)cc3)cc1)C(=O)N2`, in assay [1], the Ki was determined as 16.7 nM.

For `NS(=O)(=O)c1ccc(NC(=O)Nc2ccc(/N=C3\C(=O)Nc4ccc(F)cc43)cc2)cc1`, the Ki in assay [1] worked out at 235 nM.

In the case of `NS(=O)(=O)c1ccc(NC(=O)c2ccc(/N=C3\C(=O)Nc4ccc(Cl)cc43)cc2)cc1`, the Ki in assay [1] was 194 nM.

On to `NS(=O)(=O)c1ccc(NC(=O)c2ccc(/N=C3\C(=O)Nc4ccc(Br)cc43)cc2)cc1`, for which the Ki in assay [1] amounted to 208 nM.

Regarding `NS(=O)(=O)c1ccc(NC(=O)Nc2ccc(/N=C3\C(=O)Nc4ccc(Br)cc43)cc2)cc1`, the Ki is above 10 µM in assay [2] and 192 nM in assay [1].

Consider `NS(=O)(=O)c1ccc(NC(=O)Nc2ccc(/N=C3\C(=O)Nc4ccc([N+](=O)[O-])cc43)cc2)cc1`, for which the Ki in assay [1] worked out at 14.8 nM.

On to `Nc1ccc(C(=O)Nc2ccc(S(N)(=O)=O)cc2)cc1`, for which the Ki in assay [1] was found to be 159 nM.

In the case of `NS(=O)(=O)c1ccc(NC(=O)Nc2ccc(/N=C3\C(=O)Nc4ccccc43)cc2)cc1`, the Ki in assay [1] was found to be 217 nM.
